Measured values published in article PMC3404738 (International journal for parasitology, drugs and drug …, 2012).

Test system: A. ceylanicum
Test: In vivo treatment in the hamster model of hookworm infection
Set-up: species or system Ancylostoma ceylanicum
Settings: ABZ 10mg/kg once orally, hamsters, 20 DPI, vs infected controls

CCCSc1ccc2nc(NC(=O)OC)[nH]c2c1 [Albendazole, reference compound]
Intestinal worm burdens: eliminated intestinal worm burdens
